Here are results for 33 compounds from patent US11414416B1, “Compounds and uses thereof” (Foghorn Therapeutics Inc., priority 2019, dated 2022).

In the first assay the target is Nanoluciferase-BRD9 fusion protein (Homo sapiens (Human), UniProt Q9H8M2). Nature of the assay: SYO1 BRD9 NanoLuc degradation assay. It counts as cell-based. The note with it: Table 5A; SYO-1 cells expressing 3×FLAG-NLuc-BRD9, 6 hours; read-out: SYO1 BRD9-NanoLuc degradation IC50. The essentials: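 Degradation was read as loss of nanoluciferase signal (Nano-Glo) after 6 h compound exposure in a stable SYO-1 line carrying 3×FLAG-NLuc-BRD9 (8000 cells/well). Normalised between DMSO (high) and a 1 μM known BRD9 degrader (low).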
Nanoluciferase-BRD9 fusion protein, sequence (Q9H8M2 whole entry, the tested form may be a part): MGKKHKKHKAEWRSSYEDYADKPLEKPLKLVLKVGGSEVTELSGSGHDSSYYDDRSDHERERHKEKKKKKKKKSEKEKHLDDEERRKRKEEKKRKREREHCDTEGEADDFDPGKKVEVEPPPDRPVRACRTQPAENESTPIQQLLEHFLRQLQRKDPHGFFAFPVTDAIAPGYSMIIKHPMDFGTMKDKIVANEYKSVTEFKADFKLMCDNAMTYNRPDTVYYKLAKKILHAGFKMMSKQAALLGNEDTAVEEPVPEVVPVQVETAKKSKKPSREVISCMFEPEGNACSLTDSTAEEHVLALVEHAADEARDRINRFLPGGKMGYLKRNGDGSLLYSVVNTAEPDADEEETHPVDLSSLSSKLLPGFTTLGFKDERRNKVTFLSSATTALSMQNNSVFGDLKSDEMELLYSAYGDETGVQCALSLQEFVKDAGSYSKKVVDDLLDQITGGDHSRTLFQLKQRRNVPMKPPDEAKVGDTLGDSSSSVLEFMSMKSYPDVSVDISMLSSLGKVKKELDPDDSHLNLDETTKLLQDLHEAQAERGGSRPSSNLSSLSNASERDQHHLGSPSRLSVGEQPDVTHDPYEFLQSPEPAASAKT
As to `COc1cc(-c2cn(C)c(=O)c3cnccc23)cc(OC)c1CN1CC(OCc2cn(CCOc3ccc4c(c3)C(=O)N(C3CCC(=O)NC3=O)C4=O)nn2)C1` (stereo not drawn) [Compound D61, 5-(2-(4-(((1-(2,6-dimethoxy-4-(2-methyl-1-oxo-1,2-dihydro-2,7-naphthyridin-4-yl)benzyl)azetidin-3-yl)oxy)methyl)-1H-1,2,3-triazol-1-yl)ethoxy)-2-(2,6-dioxopiperidin-3-yl)isoindoline-1,3-dione], the DC50 lay in the range of 10 to 100 nM.

Consider `COc1cc(-c2cn(C)c(=O)c3cnccc23)cc(OC)c1CN1CC2(CC(C(=O)NCCCCCCCCNc3cccc4c3C(=O)N(C3CCC(=O)NC3=O)C4=O)C2)C1` (stereo not drawn) [Compound D20], for which the DC50 is under 10 nM.

The same assay, now with this note: Table 5B; SYO-1 cells expressing 3×FLAG-NLuc-BRD9, 6 hours; read-out: SYO1 BRD9-NanoLuc degradation IC50.
As for `COc1cc(-c2cn(C)c(=O)c3cnccc23)cc(OC)c1CN1CC2(CCN(C(=O)C#Cc3ccc4c(c3)C(=O)N(C3CCC(=O)NC3=O)C4=O)C2)C1` (stereo not drawn) [Compound D239], the DC50 was under 10 nM.

Take `COc1cc(-c2cn(C)c(=O)c3cnccc23)cc(OC)c1CN(C)CCCCN1CCC2C1CN2c1ccc2c(c1)C(=O)N(C1CCC(=O)NC1=O)C2=O` (stereo not drawn) [Compound D227]: the DC50 was under 10 nM.

As for `COc1cc(-c2cn(C)c(=O)c3cnccc23)cc(OC)c1CN1CC(CC(=O)N2CC3(CCC(Oc4ccc5c(c4)C(=O)N(C4CCC(=O)NC4=O)C5=O)C3)C2)C1` (stereo not drawn) [Compound D183], the DC50 fell in the range of 100 to 1000 nM.

As for `COc1cc(-c2cn(C)c(=O)c3cnccc23)cc(OC)c1CN(C)CCCCN1CCCC2(CC(Oc3ccc4c(c3)C(=O)N([C@H]3CCC(=O)NC3=O)C4=O)C2)C1` (stereo partly drawn) [Compound D246], the DC50 was under 10 nM.

In the case of `COc1cc(-c2cn(C)c(=O)c3cnccc23)cc(OC)c1CN(C)CCCn1cc(COC2CCN(c3ccc4c(c3)C(=O)N(C3CCC(=O)NC3=O)C4=O)CC2)nn1` (stereo not drawn) [Compound D287], the DC50 is under 10 nM.

As for `COc1cc(-c2cn(C)c(=O)c(C#N)c2C)cc(OC)c1CN1CC(CN2CCC3(CC2)CN(c2ccc4c(c2)C(=O)N(C2CCC(=O)NC2=O)C4=O)C3)C1` (stereo not drawn) [Compound D351], the DC50 is over 1000 nM.

Regarding `COc1cc(-c2cn(C)c(=O)c3cnccc23)cc(OC)c1CN1CCC(n2cc(COC3CN(c4ccc5c(c4)C(=O)N(C4CCC(=O)NC4=O)C5=O)C3)nn2)CC1` (stereo not drawn) [Compound D291], the DC50 was under 10 nM.

On to `COc1cc(-c2cn(C)c(=O)c3cnccc23)cc(OC)c1CN(C)CCCn1cc(COCCOc2ccc3c(c2)C(=O)N(C2CCC(=O)NC2=O)C3=O)nn1` (stereo not drawn) [Compound D284], for which the DC50 was 10 to 100 nM.

Turning to `COc1cc(-c2cn(C)c(=O)c3cnccc23)cc(OC)c1CN(C)CCn1cc(COC2CN(c3ccc4c(c3)C(=O)N(C3CCC(=O)NC3=O)C4=O)C2)nn1` (stereo not drawn) [Compound D277], the DC50 is under 10 nM.

`COc1cc(-c2cn(C)c(=O)c3cnncc23)cc(OC)c1CN1CCC(CN2CCC3(CC2)CC(Oc2ccc4c(c2)CN(C2CCC(=O)NC2=O)C4=O)C3)CC1` (stereo not drawn) [Compound D367]: the DC50 was under 10 nM.

In the case of `COc1cc(-c2cn(C)c(=O)c3cnccc23)cc(OC)c1Cn1cc(COCCOc2ccc3c(c2)C(=O)N(C2CCC(=O)NC2=O)C3=O)nn1` (stereo not drawn) [Compound D303], the DC50 fell in the range of 10 to 100 nM.

`COc1cc(-c2cn(C)c(=O)c3cnccc23)cc(OC)c1CN1CC2(CCN(C(=O)CCC#Cc3ccc4c(c3)C(=O)N(C3CCC(=O)NC3=O)C4=O)C2)C1` (stereo not drawn) [Compound D218]: the DC50 was under 10 nM.

As to `COc1cc(-c2cn(C)c(=O)c3cnccc23)cc(OC)c1CN1CC2(CCN(CC#Cc3ccc4c(c3)C(=O)N(C3CCC(=O)NC3=O)C4=O)CC2)C1` (stereo not drawn) [Compound D307], the DC50 is under 10 nM.

In the case of `COc1cc(-c2cc(C)c(=O)n(C)c2)cc(OC)c1CN1CCC(CCN2CCN(c3ccc4c(c3)C(=O)N(C3CCC(=O)NC3=O)C4=O)CC2)CC1` (stereo not drawn) [Compound D329], the DC50 is under 10 nM.

With `COc1cc(-c2cn(C)c(=O)c3cnccc23)cc(OC)c1CN1CC(CC(=O)N2CC3(CC(Oc4ccc5c(c4)C(=O)N(C4CCC(=O)NC4=O)C5=O)C3)C2)C1` (stereo not drawn) [Compound D234], the DC50 lay within 10 to 100 nM.

As to `COc1cc(-c2cn(C)c(=O)c3cnccc23)cc(OC)c1CN(C)CCCCNC1CC2(CCN(c3ccc4c(c3)C(=O)N(C3CCC(=O)NC3=O)C4=O)CC2)C1` (stereo not drawn) [Compound D247], the DC50 was under 10 nM.

Take `COc1cc(-c2cn(C)c(=O)c3cnccc23)cc(OC)c1CN1CCC2(C1)CN(C(=O)CCC#Cc1ccc3c(c1)C(=O)N(C1CCC(=O)NC1=O)C3=O)C2` (stereo not drawn) [Compound D269]: the DC50 is under 10 nM.

`COc1cc(-c2cn(C)c(=O)c3cnccc23)cc(OC)c1CN(C)CCCCN1CCC2(CC(Oc3ccc4c(c3)C(=O)N(C3CCC(=O)NC3=O)C4=O)C2)C1` (stereo not drawn) [Compound D253]: the DC50 was under 10 nM.

In the case of `COc1cc(-c2cn(C)c(=O)c3cnccc23)cc(OC)c1CN(C)C(=O)CCCCN1CCCC2(CC(Oc3ccc4c(c3)C(=O)N([C@H]3CCC(=O)NC3=O)C4=O)C2)C1` (stereo partly drawn) [Compound D262], the DC50 was under 10 nM.

Still in this assay, the particulars now being: Table 5C; SYO-1 cells expressing 3×FLAG-NLuc-BRD9, 6 hours.
Usually IC50 stands for the concentration at which inhibition is half-maximal. Read a low IC50 as greater potency in that assay. In turn, `COc1cc(-c2cc(C)c(=O)n(C)c2)cc(OC)c1CN1CC(C#Cc2ccc3c(c2)C(=O)N(C2CCC(=O)NC2=O)C3)C1C` (stereo not drawn) [Compound D453] came in with an IC50 of under 10 nM.

Still in this assay, the particulars now being: Table 5C; SYO-1 cells expressing 3×FLAG-NLuc-BRD9, 6 hours; read-out: SYO1 BRD9-NanoLuc degradation IC50.
With `COc1cc(-c2cc(C)c(=O)n(C)c2)cc(OC)c1CN1CCC(C#Cc2ccc3c(c2)C(=O)N(C2CCC(=O)NC2=O)C3)CC1` (stereo not drawn) [Compound D443], the DC50 is under 10 nM.

As to `COc1cc(-c2cn(C)c(=O)c3cnccc23)cc(OC)c1CN1CCC2(CC1)CN(c1nccc(C(=O)NC3CCC(=O)NC3=O)n1)C2` (stereo not drawn) [Compound D472], the DC50 is over 1000 nM.

In the case of `COc1cc(-c2cc(C)c(=O)n(C)c2C)cc(OC)c1CN1CCN(c2ccc3c(c2)CN(C2CCC(=O)NC2=O)C3=O)CC1` (stereo not drawn) [Compound D423], the DC50 is under 10 nM.

For the compound `COc1cc(-c2cn(C)c(=O)c3[nH]c(C)cc23)cc(OC)c1CN1CCC2(CC1)CN(c1ccc3c(c1)C(=O)N(C1CCC(=O)NC1=O)C3)C2` (stereo not drawn) [Compound D422], the DC50 was under 10 nM.

With `COc1cccc(OC)c1CN1CCN(c2ccc3c(c2)C(=O)N(C2CCC(=O)NC2=O)C3)CC1` (stereo not drawn) [DD14], the DC50 was over 1000 nM.

For the compound `COc1cc(-c2cn(C)c(=O)c3cnccc23)cc(OC)c1CN1CCC2(CC1)CN(c1ccnc(C(=O)NC3CCC(=O)NC3=O)n1)C2` (stereo not drawn) [Compound D391], the DC50 lay in the range of 100 to 1000 nM.

Turning to `COc1cc(-c2cn(C)c(=O)c3[nH]cc(C)c23)cc(OC)c1CN1CCC2(CC1)CN(c1ccc3c(c1)C(=O)N(C1CCC(=O)NC1=O)C3)C2` (stereo not drawn) [Compound D426], the DC50 was under 10 nM.

With `Cc1cc(-c2ccc(CN3CCN(c4ccc5c(c4)C(=O)N(C4CCC(=O)NC4=O)C5)CC3)cc2)cn(C)c1=O` (stereo not drawn) [Compound D460], the DC50 was under 10 nM.

Turning to `COc1cc(-c2cc(C(F)F)c(=O)n(C)c2C)cc(OC)c1CN1CCC(CN2CCC3(CC2)CN(c2ccc4c(c2)C(=O)N(C2CCC(=O)NC2=O)C4)C3)CC1` (stereo not drawn) [Compound D410], the DC50 was under 10 nM.

As for `COc1cc(-c2cn(C)c(=O)c3cnccc23)cc(OC)c1CN1CCC2(CC1)CN(c1cc(C(=O)NC3CCC(=O)NC3=O)ncn1)C2` (stereo not drawn) [Compound D395], the DC50 was under 10 nM.

On to `COc1cc(-c2cn(C)c(=O)c3cn(C)nc23)cc(OC)c1CN1CCC2(CC1)CN(c1ccc3c(c1)CN(C1CCC(=O)NC1=O)C3=O)C2` (stereo not drawn) [Compound D412], for which the DC50 is under 10 nM.
